The record followed here is article PMC9873234, “Syntheses and Structure–Activity Relationships of N-Phenethyl-Quinazolin-4-yl-Amines as Potent Inhibitors of Cytochrome bd Oxidase in Mycobacterium tuberculosis” (Applied sciences (Basel, Switzerland), 2021).

Holding throughout (experiment): microbe, parasite or virus in culture
Assay [1] relates to T1, M. tuberculosis N0145.
T1 construct: N0145 (clinical isolate)
Set-up: species or system M. bovis BCG, M. tuberculosis H37Rv or N0145.

The test system of assay [2] is T2, M. bovis BCG.
T2 construct: BCG
Details: species or system M. tuberculosis H37Rv or N0145. The following applies: Mycobacterium tuberculosis variant bovis BCG, 15 h, read-out: BCG / −Q203.

The test system of assay [3] is T3, M. tuberculosis H37Rv.
T3 construct: H37Rv
Details: species or system M. bovis BCG, M. tuberculosis H37Rv or N0145. The note with it: Mycobacterium tuberculosis, 15 h, read-out: Replicating ATP IC50 (µM) H37Rv / −Q203.

In assay [4] the test system is T2, M. bovis BCG. Details: species or system M. tuberculosis H37Rv or N0145. The note with it: Mycobacterium tuberculosis variant bovis BCG, 15 h, read-out: BCG / −Q203. The source holds these as a separate data set.
Assay [5] concerns T1, M. tuberculosis N0145. Details: species or system M. bovis BCG, M. tuberculosis H37Rv or N0145. The note with it: Mycobacterium tuberculosis, N0145, 15 h; read-out: N0145 / –Q203.
For assay [6], the system named is T3, M. tuberculosis H37Rv. Details: ATP depletion in replicating mycobacteria without Q203, BacTiter-Glo luminescence. The note with it: Mycobacterium tuberculosis, 15 h, read-out: Replicating ATP IC50 (µM) H37Rv / −Q203.
Setting [7] is: Mycobacterium tuberculosis, N0145, 15 h; read-out: N0145 / –Q203.

Like-named read-outs stand apart in the source and are kept apart here. Some results are limits rather than exact numbers.

As for `FC(F)(F)c1ccc(CCNc2ncnc3ccccc23)cc1` [6a, Quinazolin-4-yl{2-[4-(trifluoromethyl)phenyl]ethyl}amine], the IC50 in the assay with M. tuberculosis N0145 [1] (setting [7]), with M. bovis BCG [2] and with M. tuberculosis H37Rv [3] was above 25 µM each time.

On to `FC(F)(F)Oc1ccc(CCNc2ncnc3ccccc23)cc1` [7a, Quinazolin-4-yl{2-[4-(trifluoromethoxy)phenyl]ethyl}amine], for which the IC50 in the assay with M. tuberculosis N0145 [1] (setting [7]), with M. bovis BCG [2] and in the assay on M. tuberculosis H37Rv [3] was above 25 µM in each case.

For `Clc1ccc(CCNc2ncnc3ccccc23)cc1` [8a], the IC50 in the assay on M. tuberculosis N0145 [1] (setting [7]), with M. bovis BCG [2] and in the assay on M. tuberculosis H37Rv [3] was above 25 µM each time.

Take `FS(F)(F)(F)(F)c1ccc(CCNc2ncnc3ccccc23)cc1` [9a]: the IC50 with M. tuberculosis N0145 [1] (setting [7]), with M. bovis BCG [2] and in the assay on M. tuberculosis H37Rv [3] was above 25 µM in each case.

As to `Cc1ccc(CCNc2ncnc3ccccc23)cc1` [10a], the IC50 with M. tuberculosis N0145 [1] (setting [7]), in the assay on M. bovis BCG [2] and in the assay on M. tuberculosis H37Rv [3] was above 25 µM throughout.

For `COc1ccc(CCNc2ncnc3ccccc23)cc1` [11a], the IC50 in the assay on M. tuberculosis N0145 [1] (setting [7]), with M. bovis BCG [2] and in the assay on M. tuberculosis H37Rv [3] was above 25 µM throughout.

With `CC(C)(C)c1ccc(CCNc2ncnc3ccccc23)cc1` [12a, {2-[4-(tert-Butyl)phenyl]ethyl}quinazolin-4-ylamine], the IC50 in the assay with M. tuberculosis N0145 [1] (setting [7]), in the assay with M. bovis BCG [2] and in the assay on M. tuberculosis H37Rv [3] was above 25 µM throughout.

Consider `FC(F)(F)Oc1cccc(CCNc2ncnc3ccccc23)c1` [13a], for which the IC50 with M. tuberculosis N0145 [1] (setting [7]), in the assay on M. bovis BCG [2] and with M. tuberculosis H37Rv [3] was above 25 µM in each case.

For `CCOc1cccc(CCNc2ncnc3ccccc23)c1` [14a], the IC50 in the assay with M. tuberculosis N0145 [1] (setting [7]), in the assay on M. bovis BCG [2] and in the assay on M. tuberculosis H37Rv [3] was above 25 µM each time.

With `FC(F)(F)c1ccccc1CCNc1ncnc2ccccc12` [15a, Quinazolin-4-yl{2-[2-(trifluromethyl)phenyl]ethyl}amine], the IC50 in the assay on M. tuberculosis N0145 [1] (setting [7]), in the assay with M. bovis BCG [2] and in the assay on M. tuberculosis H37Rv [3] was above 25 µM each time.

As to `Fc1ccc2ncnc(NCCc3ccc(OC(F)(F)F)cc3)c2c1` [16a], the IC50 in the assay on M. bovis BCG [4], with M. tuberculosis N0145 [5] and with M. tuberculosis H37Rv [6] was above 25 µM in each case.

Take `Cc1ccc2ncnc(NCCc3ccc(OC(F)(F)F)cc3)c2c1` [17a]: the IC50 in the assay with M. bovis BCG [4], in the assay on M. tuberculosis N0145 [5] and in the assay with M. tuberculosis H37Rv [6] was above 25 µM throughout.

Consider `COc1ccc2ncnc(NCCc3ccc(OC(F)(F)F)cc3)c2c1` [18a], for which the IC50 in the assay with M. bovis BCG [4], with M. tuberculosis N0145 [5] and in the assay with M. tuberculosis H37Rv [6] was above 25 µM throughout.

As for `Fc1ccc2c(NCCc3ccc(OC(F)(F)F)cc3)ncnc2c1` [19a, (7-Fluoroquinazolin-4-yl){2-[4-(trifluormethoxy)phenyl]ethyl}amine], the IC50 in the assay on M. bovis BCG [4], in the assay with M. tuberculosis N0145 [5] and in the assay on M. tuberculosis H37Rv [6] was above 25 µM in each case.

Consider `FC(F)(F)Oc1ccc(CCNc2ncnc3cc(Cl)ccc23)cc1` [20a], for which the IC50 in the assay on M. bovis BCG [4], with M. tuberculosis N0145 [5] and in the assay on M. tuberculosis H37Rv [6] was above 25 µM in each case.

Take `FC(F)(F)Oc1ccc(CCNc2ncnc3cc(Br)ccc23)cc1` [21a]: the IC50 in the assay with M. bovis BCG [4], in the assay on M. tuberculosis N0145 [5] and in the assay with M. tuberculosis H37Rv [6] was above 25 µM in each case.

Regarding `FC(F)(F)Oc1ccc(CCNc2ncnc3cc(C(F)(F)F)ccc23)cc1` [22a], the IC50 in the assay on M. bovis BCG [4], with M. tuberculosis N0145 [5] and in the assay with M. tuberculosis H37Rv [6] was above 25 µM each time.

Consider `COc1ccc2c(NCCc3ccc(OC(F)(F)F)cc3)ncnc2c1` [23a], for which the IC50 in the assay on M. bovis BCG [4], in the assay on M. tuberculosis N0145 [5] and with M. tuberculosis H37Rv [6] was above 25 µM in each case.

As for `Cc1nc(NCCc2ccc(OC(F)(F)F)cc2)c2ccccc2n1` [24a], the IC50 amounted to 12.2 ± 0.737 µM with M. bovis BCG [4], 8.2 ± 0.654 µM with M. tuberculosis N0145 [5] and 7.5 ± 1.02 µM in the assay with M. tuberculosis H37Rv [6].

With `FC(F)(F)Oc1ccc(CCNc2nc(C3CC3)nc3ccccc23)cc1` [25a], the values for the IC50 with M. bovis BCG [4], with M. tuberculosis N0145 [5] and with M. tuberculosis H37Rv [6] were 8.5 ± 1.53 µM, 7.3 ± 1.05 µM and 7.6 ± 1.03 µM, respectively.

For the compound `Cc1nc(NCCc2ccc(OC(F)(F)F)cc2)c2ccc(F)cc2n1` [26a], the IC50 in the assay on M. bovis BCG [4] is above 25 µM; with M. tuberculosis N0145 [5], above 25 µM; with M. tuberculosis H37Rv [6] it was 23.6 ± 7.81 µM.

`COc1nc2ccc(Br)cc2cc1[C@@H](c1ccccc1)[C@@](O)(CCN(C)C)c1cccc2ccccc12` [BDQ]: the IC50 was 0.05 ± 0.003 µM with M. tuberculosis N0145 [1] (setting [7]), 0.17 ± 0.019 µM with M. bovis BCG [2] and 0.06 ± 0.019 µM in the assay on M. tuberculosis H37Rv [3].

On to `CC(C)=CCC/C(C)=C/CC/C(C)=C/Cc1c(C)[nH]c2ccccc2c1=O` [aurachin D], for which the values for the IC50 with M. tuberculosis N0145 [1] (setting [7]), with M. bovis BCG [2] and in the assay on M. tuberculosis H37Rv [3] were above 25 µM, above 25 µM and 5.5 ± 1.11 µM, respectively.

For the compound `FC(F)(F)c1ccc(Oc2ccc(Nc3ncnc4ccccc34)cc2)cc1` [compound 2], the IC50 with M. tuberculosis N0145 [1] (setting [7]), with M. bovis BCG [2] and with M. tuberculosis H37Rv [3] was above 25 µM throughout.

`c1ccc(CCNc2ncnc3ccccc23)cc1` [compound 3]: the IC50 with M. tuberculosis N0145 [1] (Mycobacterium tuberculosis, N0145, 15 h, read-out: N0145 / –Q203) was above 25 µM; with M. bovis BCG [2], above 25 µM; with M. tuberculosis H37Rv [3], above 25 µM.
